assay: recombinant barcode read abundance after kanamycin selection (control-corrected) (log10(CPM+1)); higher = more efficient recombination; sequences stand for … in AGTGCAGAGAAAATCGGCCAGTTTTCTCTGCCTGCAGTCCGCATGCCGT…AGATTTATGCAGCGGACTGCCTTTCTCCCAAAGTGATAAACCGGACAGTATCATGGACCGGTTTTCCCGGTAATCCGTATTTGCAAGGTTGGTTTCACT; site = the 11-nt target
Outline: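 IS621 bridge RNA target-binding loops were paired with targets in a pooled library tested in E. coli. After co-electroporation with a donor plasmid, cells were plated in two replicates on chloramphenicol/ampicillin LB agar (control) and on chloramphenicol/ampicillin/kanamycin carrying 0.1 mM IPTG. Barcodes at recombinant junctions were counted as counts per million, averaged and control-corrected to give recombination efficiency. Values are log10(CPM+1).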
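Also: IS621 recombinase and bridge RNA in Escherichia coli cells.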

Row | Sequence | recombinant barcode read abundance (log10)
1 | CTACGTACTTGGGTTCTAACCTGTTGCGT (site CTAAGTTCTAC) | 0.0986
2 | CTACGTACTTGGGTTCTAACCTGTTGCGT (site CTACGTACTAC) | 0.051
3 | CTACGTCCTTGGGTTCTAACCTGTTGCTA (site CTACGTCCTAA) | 0.0386
4 | CTACGTCCTTGGGTTCTAACCTGTTGCTA (site CTACGTCCTCA) | 0.0856
5 | CTACGTCCTTGGGTTCTAACCTGTTGCTA (site CTACGTCCTGA) | 0.425
6 | CTACGTCCTTGGGTTCTAACCTGTTGCTA (site CTACGTCCTTA) | 0.795
7 | CTACTAACTTGGGTTCTAACCTGTTGCGT (site CTACTAACTAA) | 0.13
8 | CTACTAACTTGGGTTCTAACCTGTTGCGT (site CTACTAACTAC) | 1.07
9 | CTACTAACTTGGGTTCTAACCTGTTGCGT (site CTACTAACTAG) | 0.339
10 | CTACTAACTTGGGTTCTAACCTGTTGCGT (site CTACTAACTAT) | 0.129
11 | CTACTATCTTGGGTTCTAACCTGTTGCGC (site CTACTATCTGC) | 0.937
12 | CTACTATCTTGGGTTCTAACCTGTTGCGC (site TATAACACTCG) | 0.188
13 | CTACTATCTTGGGTTCTAACCTGTTGCGT (site CTACTATCTAC) | 1.58
14 | CTACTATCTTGGGTTCTAACCTGTTGCGT (site TCGAGTGCTCT) | 0.143
15 | CTACTTCCTTGGGTTCTAACCTGTTGCGT (site CTACCTCCTAC) | 0.215
16 | CTACTTCCTTGGGTTCTAACCTGTTGCGT (site CTACTTCCTAC) | 1.69
17 | CTACTTGCTTGGGTTCTAACCTGTTGCAA (site CTAATTGCTTT) | 0.364
18 | CTACTTGCTTGGGTTCTAACCTGTTGCAA (site CTACTTGCTTT) | 0.326
19 | CTACTTGCTTGGGTTCTAACCTGTTGCAA (site CTAGTTGCTTT) | 0.239
20 | CTACTTGCTTGGGTTCTAACCTGTTGCAA (site CTATTTGCTTT) | 0.592
21 | CTAGACACTTGGGTTCTAACCTGTTGCCT (site CTAGACACTAG) | 0.612
22 | CTAGACACTTGGGTTCTAACCTGTTGCCT (site CTCGACACTAG) | 0.0911
23 | CTAGACACTTGGGTTCTAACCTGTTGCCT (site CTGGACACTAG) | 0.0451
24 | CTAGACACTTGGGTTCTAACCTGTTGCCT (site CTTGACACTAG) | 0.512
25 | CTAGACCCTTGGGTTCTAACCTGTTGCGG (site ACGCGTTCTAT) | 0.25
26 | CTAGACCCTTGGGTTCTAACCTGTTGCGG (site CTAGACCCTCC) | 2.56

Row | Sequence | recombinant barcode read abundance (log10)
27 | CTAGACGCTTGGGTTCTAACCTGTTGCCT (site CAAGACGCTAG) | 1.41
28 | CTAGACGCTTGGGTTCTAACCTGTTGCCT (site CTAGACGCTAG) | 0.677
29 | CTAGACTCTTGGGTTCTAACCTGTTGCAT (site CTAGACTCTAT) | 2.88
30 | CTAGACTCTTGGGTTCTAACCTGTTGCAT (site CTAGACTCTCT) | 1.75
31 | CTAGACTCTTGGGTTCTAACCTGTTGCAT (site CTAGACTCTGT) | 0.161
32 | CTAGACTCTTGGGTTCTAACCTGTTGCAT (site CTAGACTCTTT) | 0.365
33 | CTAGCGACTTGGGTTCTAACCTGTTGCGG (site CTAACGACTCC) | 0.637
34 | CTAGCGACTTGGGTTCTAACCTGTTGCGG (site CTAGCGACTCC) | 1.85
35 | CTAGCGTCTTGGGTTCTAACCTGTTGCTT (site CTAGAGTCTAA) | 0.115
36 | CTAGCGTCTTGGGTTCTAACCTGTTGCTT (site CTAGCGTCTAA) | 0.776
37 | CTAGCTCCTTGGGTTCTAACCTGTTGCAG (site CTAGCGGCTCT) | 0.0535
38 | CTAGCTCCTTGGGTTCTAACCTGTTGCAG (site CTAGCTCCTCT) | 1.54
39 | CTAGGACCTTGGGTTCTAACCTGTTGCCA (site CTAGGACCTTG) | 1.27
40 | CTAGGACCTTGGGTTCTAACCTGTTGCCA (site CTAGGAGCTAG) | 0.233
41 | CTAGGAGCTTGGGTTCTAACCTGTTGCTT (site CTAGGAGCTAA) | 0.924
42 | CTAGGAGCTTGGGTTCTAACCTGTTGCTT (site CTAGGAGCTCA) | 0.211
43 | CTAGGAGCTTGGGTTCTAACCTGTTGCTT (site CTAGGAGCTGA) | 0.0912
44 | CTAGGAGCTTGGGTTCTAACCTGTTGCTT (site CTAGGAGCTTA) | 0.0974
45 | CTAGGATCTTGGGTTCTAACCTGTTGCAT (site CTAGGATCTAT) | 2.45
46 | CTAGGATCTTGGGTTCTAACCTGTTGCAT (site CTAGGATCTTG) | 0.301
47 | CTAGGCTCTTGGGTTCTAACCTGTTGCGG (site CTACGCTCTTC) | 0.095
48 | CTAGGCTCTTGGGTTCTAACCTGTTGCGG (site CTAGGCTCTCC) | 2.32
49 | CTAGGTACTTGGGTTCTAACCTGTTGCTT (site ATAGGTACTAA) | 0.0337
50 | CTAGGTACTTGGGTTCTAACCTGTTGCTT (site CTAGGTACTAA) | 0.0303
51 | CTAGTAACTTGGGTTCTAACCTGTTGCCA (site ACGCGTGCTCC) | 0.0245
52 | CTAGTAACTTGGGTTCTAACCTGTTGCCA (site CTAGTAACTTG) | 0.351

Row | Sequence | recombinant barcode read abundance (log10)
53 | CTAGTTACTTGGGTTCTAACCTGTTGCCT (site CTAATTACTAG) | 0.0479
54 | CTAGTTACTTGGGTTCTAACCTGTTGCCT (site CTACTTACTAG) | 0.363
55 | CTAGTTACTTGGGTTCTAACCTGTTGCCT (site CTAGTTACTAG) | 1.11
56 | CTAGTTACTTGGGTTCTAACCTGTTGCCT (site CTATTTACTAG) | 0.177
57 | CTATCCTCTTGGGTTCTAACCTGTTGCAT (site CTAACCTCTAT) | 0.233
58 | CTATCCTCTTGGGTTCTAACCTGTTGCAT (site CTACCCTCTAT) | 1.01
59 | CTATCCTCTTGGGTTCTAACCTGTTGCAT (site CTAGCCTCTAT) | 0.537
60 | CTATCCTCTTGGGTTCTAACCTGTTGCAT (site CTATCCTCTAT) | 1.06
61 | CTATGACCTTGGGTTCTAACCTGTTGCTG (site CTATGACCTCA) | 1.91
62 | CTATGACCTTGGGTTCTAACCTGTTGCTG (site TCGGAGTCTGC) | 0.0682
63 | CTATGCCCTTGGGTTCTAACCTGTTGCGA (site CTATGCCCTTA) | 0.129
64 | CTATGCCCTTGGGTTCTAACCTGTTGCGA (site CTATGCCCTTC) | 2.02
65 | CTATGGACTTGGGTTCTAACCTGTTGCAG (site CTATGGACTAT) | 0.391
66 | CTATGGACTTGGGTTCTAACCTGTTGCAG (site CTATGGACTCT) | 2.39
67 | CTATGGACTTGGGTTCTAACCTGTTGCAG (site CTATGGACTGT) | 0.348
68 | CTATGGACTTGGGTTCTAACCTGTTGCAG (site CTATGGACTTT) | 0.0535
69 | CTATGTGCTTGGGTTCTAACCTGTTGCCT (site CTATGTGCTAA) | 0.158
70 | CTATGTGCTTGGGTTCTAACCTGTTGCCT (site CTATGTGCTAC) | 0.298
71 | CTATGTGCTTGGGTTCTAACCTGTTGCCT (site CTATGTGCTAG) | 1.62
72 | CTATGTGCTTGGGTTCTAACCTGTTGCCT (site CTATGTGCTAT) | 0.305
73 | CTATGTGCTTGGGTTCTAACCTGTTGCGA (site CTATGTGCTTC) | 1.87
74 | CTATGTGCTTGGGTTCTAACCTGTTGCGA (site GTATGTGCTTT) | 0.139
75 | CTATGTGCTTGGGTTCTAACCTGTTGCGT (site CTATGTGCTAA) | 0.0372
76 | CTATGTGCTTGGGTTCTAACCTGTTGCGT (site CTATGTGCTAC) | 1.54
77 | CTATGTGCTTGGGTTCTAACCTGTTGCGT (site CTATGTGCTAG) | 0.0548

Reference: the supplement of paper PMC11208160
